Measured values reported in ChEMBL document CHEMBL5046233, “Nitroxoline and its derivatives are potent inhibitors of metallo-β-lactamases” (Eur J Med Chem, 2022).
Values after ≈ are worked out from the molar mass of the structure shown.

System: not listed separately
Assay: Inhibition of recombinant NDM-1 (unknown origin) using fluorocillin as substrate at 30 uM incubated for 30 mins by fluorescence based assay
Details: Bacteria

Row | Structure (SMILES) | inhibition [%]
1 | c1cnc2c(c1)ccc1cccnc12 | 68
2 | O=[N+]([O-])c1cc(O)c2ncccc2c1 | 95
3 | Cc1ccc2c([N+](=O)[O-])ccc(O)c2n1 | 35
4 | CN(CC#N)Cc1ccc2c([N+](=O)[O-])ccc(O)c2n1 | 93
5 | N#Cc1ccc2ccc([N+](=O)[O-])c(O)c2n1 | < 20
6 | Oc1ccc2cccc(O)c2n1 | < 20
7 | N#CCNCc1cc([N+](=O)[O-])c2cccnc2c1O | 98
8 | N#Cc1ccc2c([N+](=O)[O-])cc([N+](=O)[O-])c(O)c2n1 | < 20
9 | CN(CC#N)C(=O)c1ccc2cccc(O)c2n1 | < 20
10 | NC(=O)c1ccc([N+](=O)[O-])c2cccnc12 | < 20
11 | Oc1ccc(Cl)c2cccnc12 | 60
12 | O=S(=O)(O)c1ccc(O)c2ccccc12 | < 20
13 | O=C(O)CN(CCN(CC(=O)O)CC(=O)O)CC(=O)O | 87
14 | O=C(O)c1ccc2c([N+](=O)[O-])cc([N+](=O)[O-])c(O)c2n1 | 96
15 | CN(C)Cc1ccc2c(Cl)cc(Cl)c(O)c2n1 | 69
16 | N#CCNC(=O)c1ccc2cccc(O)c2n1 | < 20
17 | N#CCOc1ccc([N+](=O)[O-])c2cccnc12 | < 20
18 | O=[N+]([O-])c1cc([N+](=O)[O-])c2cccnc2c1O | < 20
19 | CN(C)Cc1ccc2c([N+](=O)[O-])ccc(O)c2n1 | < 20
20 | N#Cc1ccc2cccc(O)c2n1 | < 20
21 | N#CCN(Cc1ccccc1)C(=O)c1ccc2c([N+](=O)[O-])ccc(O)c2n1 | < 20
22 | O=C(O)c1cc(O)c2ncccc2c1 | < 20
23 | O=C(O)C[C@H](NCCN[C@@H](CC(=O)O)C(=O)O)C(=O)O | 86
24 | N#CCN(Cc1ccccc1)C(=O)c1ccc2cccc(O)c2n1 | < 20
25 | O=C(O)c1ccc2c([N+](=O)[O-])ccc(O)c2n1 | 100
26 | O=C(O)c1cc([N+](=O)[O-])c2cccnc2c1O | < 20

System: not listed separately
Assay: Inhibition of recombinant NDM-1 (unknown origin) using fluorocillin as substrate at 10 uM incubated for 30 mins by fluorescence based assay
Details: Bacteria

Row | Structure (SMILES) | inhibition [%]
27 | c1cnc2c(c1)ccc1cccnc12 | < 20
28 | O=[N+]([O-])c1cc(O)c2ncccc2c1 | < 20
29 | Cc1ccc2c([N+](=O)[O-])ccc(O)c2n1 | < 20
30 | CN(CC#N)Cc1ccc2c([N+](=O)[O-])ccc(O)c2n1 | 47
31 | N#Cc1ccc2ccc([N+](=O)[O-])c(O)c2n1 | < 20
32 | Oc1ccc2cccc(O)c2n1 | < 20
33 | N#CCNCc1cc([N+](=O)[O-])c2cccnc2c1O | 89
34 | N#Cc1ccc2c([N+](=O)[O-])cc([N+](=O)[O-])c(O)c2n1 | < 20
35 | CN(CC#N)C(=O)c1ccc2cccc(O)c2n1 | < 20
36 | NC(=O)c1ccc([N+](=O)[O-])c2cccnc12 | < 20
37 | Oc1ccc(Cl)c2cccnc12 | < 20
38 | O=S(=O)(O)c1ccc(O)c2ccccc12 | < 20
39 | O=C(O)CN(CCN(CC(=O)O)CC(=O)O)CC(=O)O | 87
40 | O=C(O)c1ccc2c([N+](=O)[O-])cc([N+](=O)[O-])c(O)c2n1 | 90
41 | CN(C)Cc1ccc2c(Cl)cc(Cl)c(O)c2n1 | < 20
42 | N#CCNC(=O)c1ccc2cccc(O)c2n1 | < 20
43 | N#CCOc1ccc([N+](=O)[O-])c2cccnc12 | < 20
44 | O=[N+]([O-])c1cc([N+](=O)[O-])c2cccnc2c1O | < 20
45 | CN(C)Cc1ccc2c([N+](=O)[O-])ccc(O)c2n1 | < 20
46 | N#Cc1ccc2cccc(O)c2n1 | < 20
47 | N#CCN(Cc1ccccc1)C(=O)c1ccc2c([N+](=O)[O-])ccc(O)c2n1 | < 20
48 | O=C(O)c1cc(O)c2ncccc2c1 | < 20
49 | O=C(O)C[C@H](NCCN[C@@H](CC(=O)O)C(=O)O)C(=O)O | 84
50 | N#CCN(Cc1ccccc1)C(=O)c1ccc2cccc(O)c2n1 | < 20
51 | O=C(O)c1ccc2c([N+](=O)[O-])ccc(O)c2n1 | 95
52 | O=C(O)c1cc([N+](=O)[O-])c2cccnc2c1O | < 20

System: not listed separately
Assay: Inhibition of recombinant NDM-1 (unknown origin) using fluorocillin as substrate at 3 uM incubated for 30 mins by fluorescence based assay
Details: Bacteria

Row | Structure (SMILES) | inhibition [%]
53 | c1cnc2c(c1)ccc1cccnc12 | < 20
54 | O=[N+]([O-])c1cc(O)c2ncccc2c1 | < 20
55 | Cc1ccc2c([N+](=O)[O-])ccc(O)c2n1 | < 20
56 | CN(CC#N)Cc1ccc2c([N+](=O)[O-])ccc(O)c2n1 | < 20
57 | N#Cc1ccc2ccc([N+](=O)[O-])c(O)c2n1 | < 20
58 | Oc1ccc2cccc(O)c2n1 | < 20
59 | N#CCNCc1cc([N+](=O)[O-])c2cccnc2c1O | 64
60 | N#Cc1ccc2c([N+](=O)[O-])cc([N+](=O)[O-])c(O)c2n1 | < 20
61 | CN(CC#N)C(=O)c1ccc2cccc(O)c2n1 | < 20
62 | NC(=O)c1ccc([N+](=O)[O-])c2cccnc12 | < 20
63 | Oc1ccc(Cl)c2cccnc12 | < 20
64 | O=S(=O)(O)c1ccc(O)c2ccccc12 | < 20
65 | O=C(O)CN(CCN(CC(=O)O)CC(=O)O)CC(=O)O | 84
66 | O=C(O)c1ccc2c([N+](=O)[O-])cc([N+](=O)[O-])c(O)c2n1 | < 20
67 | CN(C)Cc1ccc2c(Cl)cc(Cl)c(O)c2n1 | < 20
68 | N#CCNC(=O)c1ccc2cccc(O)c2n1 | < 20
69 | N#CCOc1ccc([N+](=O)[O-])c2cccnc12 | < 20
70 | O=[N+]([O-])c1cc([N+](=O)[O-])c2cccnc2c1O | < 20
71 | CN(C)Cc1ccc2c([N+](=O)[O-])ccc(O)c2n1 | < 20
72 | N#Cc1ccc2cccc(O)c2n1 | < 20
73 | N#CCN(Cc1ccccc1)C(=O)c1ccc2c([N+](=O)[O-])ccc(O)c2n1 | < 20
74 | O=C(O)c1cc(O)c2ncccc2c1 | < 20
75 | O=C(O)C[C@H](NCCN[C@@H](CC(=O)O)C(=O)O)C(=O)O | 84
76 | N#CCN(Cc1ccccc1)C(=O)c1ccc2cccc(O)c2n1 | < 20
77 | O=C(O)c1ccc2c([N+](=O)[O-])ccc(O)c2n1 | 20
78 | O=C(O)c1cc([N+](=O)[O-])c2cccnc2c1O | < 20

System: Bacteria
Assay: Inhibition of recombinant VIM-1 (unknown origin) using fluorocillin as substrate at 30 uM incubated for 30 mins by fluorescence based assay
Details: not given

Row | Structure (SMILES) | inhibition [%]
79 | CN(CC#N)Cc1ccc2c([N+](=O)[O-])ccc(O)c2n1 | 92
80 | N#CCNCc1cc([N+](=O)[O-])c2cccnc2c1O | 99
81 | O=C(O)c1ccc2c([N+](=O)[O-])cc([N+](=O)[O-])c(O)c2n1 | 86
82 | O=C(O)c1ccc2c([N+](=O)[O-])ccc(O)c2n1 | 99

System: Bacteria
Assay: Inhibition of recombinant VIM-1 (unknown origin) using fluorocillin as substrate at 10 uM incubated for 30 mins by fluorescence based assay
Details: not given

Row | Structure (SMILES) | inhibition [%]
83 | CN(CC#N)Cc1ccc2c([N+](=O)[O-])ccc(O)c2n1 | 53
84 | N#CCNCc1cc([N+](=O)[O-])c2cccnc2c1O | 99
85 | O=C(O)c1ccc2c([N+](=O)[O-])cc([N+](=O)[O-])c(O)c2n1 | 57
86 | O=C(O)c1ccc2c([N+](=O)[O-])ccc(O)c2n1 | 99

System: Bacteria
Assay: Inhibition of recombinant VIM-1 (unknown origin) using fluorocillin as substrate at 3 uM incubated for 30 mins by fluorescence based assay
Details: not given

Row | Structure (SMILES) | inhibition [%]
87 | CN(CC#N)Cc1ccc2c([N+](=O)[O-])ccc(O)c2n1 | 23
88 | N#CCNCc1cc([N+](=O)[O-])c2cccnc2c1O | 95
89 | O=C(O)c1ccc2c([N+](=O)[O-])cc([N+](=O)[O-])c(O)c2n1 | 34
90 | O=C(O)c1ccc2c([N+](=O)[O-])ccc(O)c2n1 | 70

System: Bacteria
Assay: Inhibition of recombinant IMP-1 (unknown origin) using fluorocillin as substrate at 30 uM incubated for 30 mins by fluorescence based assay
Details: not given

Row | Structure (SMILES) | inhibition [%]
91 | CN(CC#N)Cc1ccc2c([N+](=O)[O-])ccc(O)c2n1 | 78
92 | N#CCNCc1cc([N+](=O)[O-])c2cccnc2c1O | 96
93 | O=C(O)c1ccc2c([N+](=O)[O-])cc([N+](=O)[O-])c(O)c2n1 | 91
94 | O=C(O)c1ccc2c([N+](=O)[O-])ccc(O)c2n1 | 99

System: Bacteria
Assay: Inhibition of recombinant IMP-1 (unknown origin) using fluorocillin as substrate at 10 uM incubated for 30 mins by fluorescence based assay
Details: not given

Row | Structure (SMILES) | inhibition [%]
95 | CN(CC#N)Cc1ccc2c([N+](=O)[O-])ccc(O)c2n1 | 38
96 | N#CCNCc1cc([N+](=O)[O-])c2cccnc2c1O | 91
97 | O=C(O)c1ccc2c([N+](=O)[O-])cc([N+](=O)[O-])c(O)c2n1 | 47
98 | O=C(O)c1ccc2c([N+](=O)[O-])ccc(O)c2n1 | 96

System: Bacteria
Assay: Inhibition of recombinant IMP-1 (unknown origin) using fluorocillin as substrate at 3 uM incubated for 30 mins by fluorescence based assay
Details: not given

Row | Structure (SMILES) | inhibition [%]
99 | CN(CC#N)Cc1ccc2c([N+](=O)[O-])ccc(O)c2n1 | < 20
100 | N#CCNCc1cc([N+](=O)[O-])c2cccnc2c1O | 43
101 | O=C(O)c1ccc2c([N+](=O)[O-])cc([N+](=O)[O-])c(O)c2n1 | < 20
102 | O=C(O)c1ccc2c([N+](=O)[O-])ccc(O)c2n1 | 74

System: Klebsiella pneumoniae
Assay: Antimicrobial activity against Klebsiella pneumoniae clinical isolate T2301 expressing NDM-1 assessed as inhibition of bacterial growth by CLSI protocol based broth microdilution assay
Type: functional
Details: not given

Row | Structure (SMILES) | MIC [µg/mL]
103 | C[C@@H](O)[C@H]1C(=O)N2C(C(=O)O)=C(S[C@@H]3CN[C@H](C(=O)N(C)C)C3)[C@H](C)[C@H]12 [MEROPENEM] | 0.128 (≈ 0.334 µM)
104 | CC(C)(O/N=C(\C(=O)N[C@@H]1C(=O)N2C(C(=O)[O-])=C(C[n+]3ccccc3)CS[C@H]12)c1csc(N)n1)C(=O)O [CEFTAZIDIME] | 4.1 (≈ 7.49 µM)
105 | CCN1CCN(C(=O)N[C@@H](C(=O)N[C@@H]2C(=O)N3[C@@H]2SC(C)(C)[C@@H]3C(=O)O)c2ccccc2)C(=O)C1=O [PIPERACILLIN] | 4.1 (≈ 7.91 µM)

System: Escherichia coli
Assay: Antimicrobial activity against Escherichia coli clinical isolate T2228 expressing VIM-1 assessed as inhibition of bacterial growth by CLSI protocol based broth microdilution assay
Type: functional
Details: not given

Row | Structure (SMILES) | MIC [µg/mL]
106 | C[C@@H](O)[C@H]1C(=O)N2C(C(=O)O)=C(S[C@@H]3CN[C@H](C(=O)N(C)C)C3)[C@H](C)[C@H]12 [MEROPENEM] | 0.008 (≈ 0.0209 µM)
107 | CC(C)(O/N=C(\C(=O)N[C@@H]1C(=O)N2C(C(=O)[O-])=C(C[n+]3ccccc3)CS[C@H]12)c1csc(N)n1)C(=O)O [CEFTAZIDIME] | 0.256 (≈ 0.468 µM)
108 | CCN1CCN(C(=O)N[C@@H](C(=O)N[C@@H]2C(=O)N3[C@@H]2SC(C)(C)[C@@H]3C(=O)O)c2ccccc2)C(=O)C1=O [PIPERACILLIN] | 1.02 (≈ 1.98 µM)
